Laboratory results published in US11339144B2 (Navitor Pharmaceuticals, Inc., priority 2017, dated 2022).
pIC50: −log10 of the molar value.

Target: HA-GST-Rheb (GTP-γ-S loaded) activating mTORC1 (Homo sapiens (Human), UniProt Q15382)
Assay: Rheb-dependent in vitro kinase assay (Rheb-IVK; LanthaScreen or Western readout)
Type: biochemical
Parameters: IVK IC50 (μM): scale not given here
Conditions: Rheb-dependent in vitro kinase assay; for pIC50: read-out: IVK IC50

Chain of HA-GST-Rheb (GTP-γ-S loaded) activating mTORC1 (Q15382 1-181): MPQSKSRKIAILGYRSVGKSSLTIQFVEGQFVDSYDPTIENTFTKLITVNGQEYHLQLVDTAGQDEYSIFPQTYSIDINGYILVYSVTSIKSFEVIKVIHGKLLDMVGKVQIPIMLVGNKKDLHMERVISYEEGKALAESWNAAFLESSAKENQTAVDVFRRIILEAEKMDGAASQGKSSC

| pIC50 | IVK IC50 (μM) | Compound |
| --- | --- | --- |
| < 4.00 |  | CCCn1c(CO)nc2cc(OCc3ccccc3)c(Cl)cc21 [I-479] |
| < 4.00 |  | Cn1ccc2c(Oc3cccc(F)c3)cccc21 [I-266] |
| < 4.00 |  | Cn1ccc2c(Sc3ccc(Cl)cc3)cc(Cl)cc21 [I-205] |
| < 4.00 |  | CCn1cnc2cc(Cl)c(OCc3ccccc3)cc21 [I-435] |
| 4.00 to 5.00 |  | Nc1nonc1-c1nc2cc(Cl)c(Cl)cc2n1Cc1ccc(-c2nn[nH]n2)cc1 [I-490, 4-(1-(4-(2H-tetrazol-5-yl)benzyl)-5,6-dichloro-1H-benzo[d]imidazol-2-yl)-1,2,5-oxadiazol-3-amine] |
| 3.52 to 4.00 |  | OCc1nc2cc(OCc3ccccc3)c(Cl)cc2n1Cc1nc[nH]n1 [I-403, (1-((1H-1,2,4-triazol-3-yl)methyl)-5-(benzyloxy)-6-chloro-1H-benzo[d]imidazol-2-yl)methanol] |
| < 4.00 |  | Cn1c(CO)cc2c(OCc3ccccc3)cc(Cl)cc21 [I-292] |
| < 4.00 |  | Clc1ccc(CSc2cccc3[nH]ccc23)cc1Cl [I-191] |
| < 4.00 |  | OCc1nc2cc(Cl)c(OCc3ccccc3)cc2n1Cc1ccccc1 [I-467] |
| < 4.00 |  | OCc1nc2ccc(Oc3ccccc3)cc2n1Cc1nc[nH]n1 [I-397] |
| < 4.00 |  | Clc1ccccc1Oc1cccc2[nH]ccc12 [I-285] |
| < 4.00 |  | N#Cc1cccc(COc2c(Cl)c(Cl)cc3[nH]c(CO)nc23)c1 [I-459] |
| < 4.00 |  | Nc1ncccc1COc1c(Cl)c(Cl)cc2[nH]c(CO)nc12 [I-436] |
| < 4.00 |  | CCn1c(CO)nc2cc(Cl)c(OCc3cccc(Cl)c3)cc21 [I-448] |
| < 4.00 |  | CCn1c(CO)nc2cc(OCc3cccc(F)c3)c(Cl)cc21 [I-442] |
| < 4.00 |  | CCn1c(CO)nc2cc(Cl)c(OCc3ccc(Cl)cc3)cc21 [I-450] |
| < 4.00 |  | Cn1c(CO)cc2c(Oc3ccccc3)c(Cl)ccc21 [I-289] |
| 3.10 to 3.52 |  | OCc1nc2cc(OCc3cccc(Cl)c3)c(Cl)cc2[nH]1 [I-478, (5-chloro-6-(3-chlorobenzyloxy)-1H-benzo[d]imidazol-2-yl)methanol] |
| < 4.00 |  | Cn1cc(-c2cc(Oc3ccccc3)cc3[nH]c(CO)cc23)cn1 [I-227] |
| < 4.00 |  | OCc1nc2c(OCC3CCCCO3)c(Cl)c(Cl)cc2[nH]1 (stereo not drawn) [I-398] |
| 4.00 to 5.00 |  | Clc1ccc(Sc2cccc3c2ccn3Cc2nc[nH]n2)cc1 [I-196, 1-((1H-1,2,4-triazol-3-yl)methyl)-4-(4-chlorophenylthio)-1H-indole] |
| < 5.52 |  | Clc1cc2nc(-c3ccncc3)[nH]c2c(Cl)c1Cl [I-353, 5,6,7-trichloro-2-(pyridin-4-yl)-1H-benzo[d]imidazole] |

| pIC50 | IVK IC50 (μM) | Compound |
| --- | --- | --- |
| < 4.00 |  | OCc1cc2c(OCCc3ccccc3)cc(Cl)cc2[nH]1 [I-279] |
| < 4.00 |  | N#CCc1nc2c(OCc3ccccc3)c(Cl)ccc2[nH]1 [I-469] |
| < 4.00 |  | CCn1c(CO)nc2cc(OCCc3ccccc3)c(Cl)cc21 [I-430] |
| < 4.00 |  | O=C(O)c1ccc(Cn2c(-c3ncco3)nc3cc(Cl)c(Cl)cc32)cc1 [I-452] |
| < 4.00 |  | OCc1cc2c(Br)cc(Oc3ccccc3)cc2n1Cc1nc[nH]n1 [I-225] |
| 3.52 to 4.00 |  | NC(=O)Cn1c(CO)nc2cc(OCc3ccccc3)c(Cl)cc21 [I-475, 2-(5-(benzyloxy)-6-chloro-2-(hydroxymethyl)-1H-benzo[d]imidazol-1-yl)acetamide] |
| < 4.00 |  | Nc1cccc(COc2c(Cl)c(Cl)cc3nc(CO)[nH]c23)n1 [I-464] |
| < 4.00 |  | Nc1nonc1-c1nc2cc(Cl)c(Cl)cc2[nH]1 [I-477] |
| < 4.00 |  | O=S(=O)(c1cccc(Cl)c1)c1cccc2[nH]ccc12 [I-240] |
| 3.52 to 4.00 |  | O=C1CCCC(COc2c(Cl)c(Cl)cc3[nH]c(CO)nc23)N1 (stereo not drawn) [I-465, 6-((5,6-dichloro-2-(hydroxymethyl)-1H-benzo[d]imidazol-4-yloxy)methyl)piperidin-2-one] |
| < 4.00 |  | N#CCc1nc2cc(OCc3ccccc3)c(Cl)cc2[nH]1 [I-473] |
| < 4.00 |  | CCn1c(CO)nc2ccc(OCc3ccccc3)cc21 [I-417] |
| < 4.00 |  | Cn1c(CO)cc2c(Oc3ccc(Cl)cc3)cccc21 [I-259] |
| < 4.00 |  | [O-][S+](c1cccc(Cl)c1)c1cccc2[nH]ccc12 (stereo not drawn) [I-233] |
| < 4.00 |  | CCn1c(CO)nc2cc(OCc3ccccc3)ccc21 [I-416] |
| < 4.00 |  | OCc1cc2c(Cl)cc(Oc3ccccc3)cc2n1Cc1c[nH]cn1 [I-174] |
| < 4.00 |  | OCc1nc2c(OCC3CCCN3)c(Cl)c(Cl)cc2[nH]1 (stereo not drawn) [I-468] |
| < 4.00 |  | OCc1nc2c(Oc3ccccc3)cccc2[nH]1 [I-470] |
| 3.10 to 3.52 |  | OCc1nc2cc(OCc3ccccc3Cl)c(Cl)cc2[nH]1 [I-485, (5-chloro-6-(2-chlorobenzyloxy)-1H-benzo[d]imidazol-2-yl)methanol] |
| < 4.00 |  | OCc1nc2c(OCc3cncnc3O)c(Cl)c(Cl)cc2[nH]1 [I-405] |
| < 4.00 |  | Cn1c(CO)cc2c(Oc3ccccc3Cl)cccc21 [I-272] |
| < 4.00 |  | OCc1cc2c(C3CCCNC3)cc(Oc3ccccc3)cc2[nH]1 (stereo not drawn) [I-219] |

| pIC50 | IVK IC50 (μM) | Compound |
| --- | --- | --- |
| < 4.00 |  | Cn1ccc2c(Oc3ccccc3Cl)cccc21 [I-269] |
| < 4.00 |  | O=C(c1ccc(Cl)cc1)c1cccc2[nH]ccc12 [I-178] |
| < 4.00 |  | Clc1ccc(Sc2cccc3cc[nH]c23)cc1 [I-217] |
| < 4.00 |  | O=C(O)c1ccc(Sc2cccc3[nH]ccc23)cc1 [I-192] |
| 3.10 to 3.52 |  | OCc1cc2c(Oc3ccc(F)cc3)cccc2[nH]1 [I-278, (4-(4-fluorophenoxy)-1H-indol-2-yl)methanol] |
| 4.00 to 5.00 |  | Clc1cccc(Oc2cccc3[nH]ccc23)c1 [I-284, 4-(3-chlorophenoxy)-1H-indole] |
| < 4.00 |  | Cn1ccc(-c2cc(Oc3ccccc3)cc3[nH]c(CO)cc23)n1 [I-213] |
| < 4.00 |  | Clc1cc2cc[nH]c2cc1Oc1ccccc1 [I-258] |
| < 4.00 |  | c1ccc(Sc2cccc3[nH]ccc23)nc1 [I-210] |
| 3.10 to 3.52 |  | OCc1cc2ccc(Oc3ccccc3)cc2[nH]1 [I-286, (6-Phenoxy-1H-indol-2-yl)methanol] |
| < 4.00 |  | COC(=O)c1ccc(Sc2cccc3[nH]ccc23)cc1 [I-188] |
| < 4.00 |  | O=C(O)CCc1cc2c(Oc3ccccc3)c(Cl)ccc2[nH]1 [I-253] |
| < 4.00 |  | O=S(=O)(c1ccccc1)c1cc(Br)c2cc(CO)[nH]c2c1 [I-230] |
| < 4.00 |  | CCn1c(CO)nc2cc(OCc3ccccc3F)c(Cl)cc21 [I-461] |
| < 4.00 |  | OCc1cc2ccc(Oc3ccccc3)cc2n1Cc1nc[nH]n1 [I-214] |
| < 4.00 |  | Cn1c(CO)cc2c(Oc3ccc(F)cc3)cccc21 [I-273] |
|  | E/F | Cc1cc(Oc2ccccc2)cc2c1cc(CO)n2Cc1nc[nH]n1 [I-234] |
| 4.00 to 5.00 |  | OCc1nc2c(OC[C@H]3CCCC[C@@H]3O)c(Cl)c(Cl)cc2[nH]1 (racemic) [I-383, (+,−)-trans-2-((5,6-dichloro-2-(hydroxymethyl)-1H-benzo[d]imidazol-4-yloxy)methyl)cyclohexanol] |
| < 4.00 |  | (4-(2-(2-aminopyridin-4-yl)ethoxy)-5,6-dichloro-1H-benzo[d]imidazol-2-yl)methanol [I-182] |
| < 4.00 |  | O=S(=O)(c1ccc(Cl)cc1)c1cccc2[nH]ccc12 [I-242] |
| < 4.00 |  | OCc1nc2c(OCc3ccnc(Cl)n3)c(Cl)c(Cl)cc2[nH]1 [I-424] |
| < 4.00 |  | OCc1cc2c(Br)cc(Oc3ccccc3)cc2n1Cc1ccc(-c2nn[nH]n2)cc1 [I-221] |

| pIC50 | IVK IC50 (μM) | Compound |
| --- | --- | --- |
| < 4.00 |  | CCn1c(CO)nc2cc(Cl)c(OCc3ccc(F)cc3)cc21 [I-445] |
| < 4.00 |  | CCn1c(CO)nc2cc(OCc3ccccc3)c(Cl)cc21 [I-487] |
| < 4.00 |  | COc1ccc(Cn2cnc3c(Br)cc(Oc4ccccc4)cc32)cc1 [I-429] |
| < 4.00 |  | NC(=O)Cn1c(CO)nc2cc(Cl)c(OCc3ccccc3)cc21 [I-476] |
| < 4.00 |  | OCc1cc2c(C3CCNCC3)cc(Oc3ccccc3)cc2[nH]1 [I-199] |
| 3.10 to 3.52 |  | Cn1ccc2c(NC3CCNCC3)cccc21 [I-297, 1-methyl-N-(piperidin-4-yl)-1H-indol-4-amine] |
| < 4.00 |  | O=C1CCC(COc2c(Cl)c(Cl)cc3[nH]c(CO)nc23)N1 (stereo not drawn) [I-419] |
| < 4.00 |  | OCc1cc2c(Oc3cccc(F)c3)cccc2[nH]1 [I-264] |
| 3.10 to 3.52 |  | Clc1cc2nc(-c3cnon3)n(Cc3ccc(-c4nn[nH]n4)cc3)c2cc1Cl [I-474, 3-(1-(4-(2H-tetrazol-5-yl)benzyl)-5,6-dichloro-1H-benzo[d]imidazol-2-yl)-1,2,5-oxadiazole] |
| < 4.00 |  | CCn1c(CO)nc2cc(OCc3cccc(Cl)c3)c(Cl)cc21 [I-401] |
| < 4.00 |  | [O-][S+](c1ccccc1)c1cc(Br)c2cc(CO)[nH]c2c1 (stereo not drawn) [I-229] |
| 3.52 to 4.00 |  | OCc1nc2c(OCC3CCCO3)c(Cl)c(Cl)cc2[nH]1 (stereo not drawn) [I-400, (5,6-dichloro-4-((tetrahydrofuran-2-yl)methoxy)-1H-benzo[d]imidazol-2-yl) methanol bis (2,2,2-trifluoroacetate)] |
| < 4.00 |  | OCc1cc2c(C3CCCCC3)cc(Oc3ccccc3)cc2[nH]1 [I-223] |
| < 4.00 |  | COC(=O)c1cc(Sc2ccc(Cl)cc2)c2cc[nH]c2c1 [I-197] |
| < 4.00 |  | OCc1nc2c(Br)cc(Oc3ccccc3)cc2[nH]1 [I-428, (4-bromo-6-phenoxy-1H-benzo[d]imidazol-2-yl)methanol] |
| < 4.00 |  | CCn1c(CO)nc2cc(Cl)c(OCc3cccc(F)c3)cc21 [I-443] |
| < 4.00 |  | OCc1nc2c(OC[C@H]3CCCC[C@@H]3O)c(Cl)c(Cl)cc2n1Cc1nc[nH]n1 [I-392] |
| 3.10 to 3.52 |  | OCc1nc2cc(OCCc3ccccc3)c(Cl)cc2[nH]1 [I-483, (6-chloro-5-phenethoxy-1H-benzo[d]imidazol-2-yl)methanol] |
| < 4.00 |  | CCn1c(CO)nc2c(Cl)cc(OCc3ccccc3)cc21 [I-413] |
| 4.00 to 5.00 |  | OCc1nc2c(OC[C@H]3CCCC[C@@H]3O)c(Cl)c(Cl)cc2n1Cc1nn[nH]n1 (racemic) [I-391, (+,−)-trans-2-((1-((2H-tetrazol-5-yl)methyl)-5,6-dichloro-2-(hydroxymethyl)-1H-benzo[d]imidazol-4-yloxy)methyl)cyclohexanol] |

| Compound | pIC50 | IVK IC50 (μM) |
| --- | --- | --- |
| OCc1nc2c(OCCc3c[nH]cn3)c(Cl)c(Cl)cc2[nH]1 [I-384] | < 4.00 |  |
